Results as given in patent publication US10385108B2, “Peptide analogs of alpha-melanocyte stimulating hormone” (Genzyme Corporation, priority 2008, dated 2019).
Where two headings read alike, the source gives them in different places.

Columns and labels:
[1] = tested on: B10.RIII mice
Procedure: Female B10.RIII were injected subcutaneously at two sites (between shoulder blades and in pelvic region) with a total of 200 μg interphotoreceptor binding protein peptide (IRBP) 161-180 (New England Peptide; Fitchburg, Mass.), respectively in 2 mg/ml complete Freund's adjuvant (CFA; Sigma, St. Louis, Mo.) with mycobacterium tuberculosis H37Ra (Difco, Detroit, Mich.).
The eyes of mice are dilated using one or two drops of Mydriacyl 1% (Alcon; Humacao, Puerto Rico) and rested in a darkened room for approximately 5 min. Mice are manually restrained and the retinas of both eyes are visualized using an indirect ophthalmoscope with a 78 diopter lens. The eyes are scored for inflammation using a progressive scoring system between 0-5. Score 0: Normal retina. Score 1: Vascular inflammation proximal to the optic nerve. Score 2: <5 inflammatory lesions confined to one quadrant of the eye. Score 3: >5 inflammatory lesions in more than one quadrant of the eye. Score 4: Inflammatory lesions are contiguous. Score 5: Retinal detachment. Whole eyes from mice were harvested and placed in PBS. The eyes were embedded in OCT media for frozen fixation. 5-μm sections were cut through the papillary-optic nerve plane and stained with hematoxylin and eosin.
Uveitis was induced in B10.RIII mice with an injection of IRBP 161-180 and CFA.
Current forms of therapy for uveitis include corticosteroids and immunosuppressive agents. […] Uveitis was induced in B10.RIII mice with IRBP161-180 and CFA injections. […] Mice were treated daily for 21 days.
EAU was induced in female B10.RIII mice with IRBP 161-180.
Uveitis was induced in B10.RIII mice with IRBP161-180 and CFA injections. […] Individual weights of the mice were recorded at 4 timepoints throughout the course of disease.
B10.RIII mice were injected with IRBP161-180 and CFA to induce uveitis. […] Treatment was initiated at peak time of disease when mice reached eye scores of 4 which included inflammatory lesions throughout the posterior segment of the eye and possible hemorrhaging.

[2] = target: MC5R (Homo sapiens, UniProt P33032); test: Competitive binding with 125I-NDP-MSH, HEK293 membrane preparations, MC5R
Procedure: (§1) Binding analysis was done by Cerep laboratories (Paris, France) with coded samples.
(§2) The mixtures were filtered through 96-well GFC filters (Millipore, Billerica, Mass.), washed 3 times with binding buffer without BSA, dried and counted.
(§3) A competitive binding assay using a MCR panel including MCR 1, 3, 4, and 5 was performed.

[3] = target: MC3R (Homo sapiens, UniProt P41968); test: Competitive binding with 125I-NDP-MSH, HEK293 membrane preparations, MC3R
Procedure: as §1, §2, §3

[4] = tested on: C57BL/6 mice; test: MOG35-55 primed mice treated in the priming phase: recall response, cytokines, macrophage markers; format: in vivo
Procedure: C57BL/6 mouse splenocytes and lymph node cells were cultured in 96 well plates 5×10^5 cells/well. MOG35-55 or OVA 257-264 peptide was added to wells at a concentration of 25 μg/ml. Supernatant was collected at 48 hrs after MOG peptide stimulation. After 3 days in culture cells were pulsed with [3H] thymidine at 1 μCi/well for 8 hrs. Thymidine incorporation was measured by cpm.
Total RNA was extracted from tissues with TRIZOL® (Invitrogen, Carlsbad, Calif.). 1 μg of total RNA was reverse transcribed and used in quantitative PCR by using SYBR® green incorporation with reagents from Applied Biosystems (Foster City, Calif.) on an ABI 7900. A cDNA standard was run in each PCR for cytokine targets and message concentrations were normalized to mouse β-actin. […] The sequences for mouse IL-10 primers were forward: […] (SEQ ID NO:29) and reverse: […] (SEQ ID NO:30) (2). The sequences for mouse β-actin primers were: forward […] (SEQ ID NO:31) and reverse […] (SEQ ID NO:32) (3).
Flow cytometric analysis of inflammatory cytokine profiles of mouse serum or cell supernatant were measured using the Cytometric Bead Array Kit (CBA) made by BD Biosciences (San Jose, Calif.). Samples were processed according to the manufacturer's protocol.
On Day 9, spleen and draining lymph nodes were harvested and analyzed for recall responses to MOG35-55 peptide in vitro by [3H] thymidine incorporation.
Cytokine levels were evaluated through a cytometric bead array by flow cytometry.
Spleens from individual mice were harvested on Day 9 and mRNA cytokine expression was quantitated using real time PCR. […] Naïve mice that were not immunized with MOG peptide were used to quantitate baseline mRNA levels of TNF-α and IL-10.
Blood serum samples were also collected on day 9 of the study and evaluated for cytokine levels: TNF-α, MCP-1, IL-12, IL-10, and IL-6 (FIGS. 13C and 13D).

[5] = Peptide stability in plasma or PBS in vitro at 37° C.; format: in vitro ADME; conditions: 24 hours
Procedure: The stability of RI-α-MSH was determined by incubation in plasma or PBS in vitro at 37° C. for 24 hours. Aliquots were taken and proteins precipitated with 2 volumes of acetonitrile. α-MSH was used as a control and bradykinin as an internal standard. After centrifugation, samples were frozen at −80° C. until LC/MS/MS (MRM) analysis using a C18 column separation and positive electrospray ionization mode.

[6] = target: MC1R (Homo sapiens, UniProt Q01726); test: Competitive binding with 125I-NDP-MSH, HEK293 membrane preparations, MC1R;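 further: Read-out: receptor-bound radioligand retained by filtration and counted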
Procedure: as §1, §2, §3

[7] = 100 μg i.p. days 2-8, harvested day 9

Chain of MC1R (Q01726 whole entry): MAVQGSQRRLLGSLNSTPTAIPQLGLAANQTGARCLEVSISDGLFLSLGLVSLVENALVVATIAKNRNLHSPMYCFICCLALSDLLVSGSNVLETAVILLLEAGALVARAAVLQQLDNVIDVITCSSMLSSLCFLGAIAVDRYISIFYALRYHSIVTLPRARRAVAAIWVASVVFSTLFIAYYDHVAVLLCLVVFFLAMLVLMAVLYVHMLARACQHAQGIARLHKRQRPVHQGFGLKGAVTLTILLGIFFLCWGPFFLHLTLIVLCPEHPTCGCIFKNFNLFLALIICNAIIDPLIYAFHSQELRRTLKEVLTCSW
Chain of MC5R (P33032 whole entry): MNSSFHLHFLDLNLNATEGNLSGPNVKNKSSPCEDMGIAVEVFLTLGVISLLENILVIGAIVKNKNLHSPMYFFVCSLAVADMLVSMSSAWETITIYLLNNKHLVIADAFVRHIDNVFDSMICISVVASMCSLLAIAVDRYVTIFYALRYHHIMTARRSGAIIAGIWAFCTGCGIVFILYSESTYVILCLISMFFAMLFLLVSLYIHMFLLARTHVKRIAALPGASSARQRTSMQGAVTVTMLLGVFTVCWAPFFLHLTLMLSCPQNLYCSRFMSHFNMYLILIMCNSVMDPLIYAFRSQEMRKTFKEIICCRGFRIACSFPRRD
Chain of MC3R (P41968 whole entry): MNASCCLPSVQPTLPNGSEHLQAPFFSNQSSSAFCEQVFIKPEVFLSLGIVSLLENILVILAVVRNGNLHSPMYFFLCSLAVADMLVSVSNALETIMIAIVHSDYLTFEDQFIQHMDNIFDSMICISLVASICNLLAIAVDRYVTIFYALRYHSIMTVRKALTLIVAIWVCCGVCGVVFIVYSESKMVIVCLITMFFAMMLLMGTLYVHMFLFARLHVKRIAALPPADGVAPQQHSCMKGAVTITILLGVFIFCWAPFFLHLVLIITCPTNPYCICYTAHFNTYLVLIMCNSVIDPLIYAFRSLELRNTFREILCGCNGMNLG

SMILES: CSCC[C@@H](NC(=O)[C@@H](CCC(=O)O)NC(=O)[C@@H](Cc1c[nH]cn1)NC(=O)[C@@H](Cc1ccccc1)NC(=O)[C@@H](CCCNC(=N)N)NC(=O)[C@@H](Cc1c[nH]c2ccccc12)NC(=O)CNC(=O)[C@@H](CCCCN)NC(=O)[C@H]1CCCN1C(=O)[C@H](NC(C)=O)C(C)C)C(=O)N[C@H](CO)C(=O)N[C@H](Cc1ccc(O)cc1)C(=O)N[C@H](CO)C(N)=O [RI-MSH, vpkGwrfhemsys]
- uveitis course (in words) ([1]; 3 μg/mouse i.p. daily from eye scores of 4): did not reduce or inhibit disease
- uveitis course (in words) ([1]; 10 μg/mouse i.p. daily from eye scores of 4): rapidly ameliorated uveitis
- mean clinical eye scores vs scrambled peptide (in words) ([1]; 100 μg/mouse i.p. daily for 13 days from eye scores 2-3, days 15, 21 and 23): significant reduction
- uveitis course (in words) ([1]; 100 μg/mouse i.p. daily from eye scores of 4): rapidly ameliorated uveitis
- mice with individual maximum eye scores ≤1 ([1]; 100 μg/mouse i.p. daily, day 23 after disease induction): 75%
- efficacy in uveitis, treatment at onset of disease (in words) ([1]; 100 μg/mouse i.p., from eye score 1, data not shown): had efficacy in uveitis
- mean clinical eye scores vs PBS (in words) ([1]; 100 μg/mouse i.v. daily from eye scores of 2): significant reduction of mean clinical eye scores
- eye score in retina images (median of group) ([1]; 100 μg/mouse i.v. daily from late stage, day 13 after start of treatment): 1
- histological examination of the eyes (in words) ([1]; 100 μg/mouse i.v. daily, 10 days after start of treatment): reduced pathology in the eye
- mice with eye scores of 3 or greater ([1]; 100 μg/mouse i.v. daily, day 13 after start of treatment): 2 of the 11
- mice with a maximum eye score of 3 or greater ([1]; 100 μg/mouse i.v. daily, day 16, four days after start of treatment): 0 of the 8
- Ki ([2]; Ki MC5R, competition with 125I-NDP-MSH, cells noted in μM): ~25 µM
- binding to MCR-5 (in words) ([2]; MCR panel 1, 3, 4, 5): bind only to MCR-1
- Ki [3]: > 30 µM
- binding to MCR-3 (in words) ([3]; MCR panel 1, 3, 4, 5): bind only to MCR-1
- proliferative recall response of spleen cells to MOG35-55 (in words) [4, 7]: slight reduction in recall responses
- recall response of lymph node cells to MOG peptide (in words) [4, 7]: did not show a significant difference
- expression of CD86, CD40, CD14 on splenic CD11b+ or F4/80+ macrophages (in words) ([4]; 7 days of daily dosing, 100 μg/mouse): no difference in the expression levels
- TNF-α, IFNγ, IL-6 and MCP-1 levels in spleen cell supernatant vs PBS (in words) ([4]; cells stimulated with MOG35-55 in vitro): decrease
- serum IL-6 vs PBS (in words) ([4]; day 9): decrease
- serum IL-10 (in words) ([4]; day 9): no difference
- serum MCP-1 vs PBS (in words) ([4]; day 9): significantly decreased
- serum TNF-α and IL-12 vs PBS (in words) ([4]; day 9): decrease
- IL-10 and TNF-α mRNA in spleen vs PBS (in words) ([4]; priming phase, treated days 2-8, day 9): decreased levels
- stability in PBS (in words) [5]: stable both in PBS and plasma
- stability in plasma (in words) ([5]; in vitro): no detectable degradation over 24 hours
- affinity for MC1R lower than that of the native MSH peptide [6]: 11 fold
- Ki ([6]; Ki MC1R, competition with 125I-NDP-MSH): 0.0046 ± 0.0013 µM
- binding to MCR-1 (in words) ([6]; MCR panel 1, 3, 4, 5): bind only to MCR-1
